The values that follow come from US20070042947A1, “Agents for preventing and/or treating uppper digestive tract disorders” (Takeda Pharmaceutical Company Limited, priority 2003, published 2007).

Test [1] relates to pylorus ligated rats. Description: Gastric fluid volume, pH, gastric acidity and acid output in pylorus ligated rats. Format: in vivo, rat. As to conditions: 2 mg/kg intraperitoneally; 3 hours after pylorus ligature; mean ± SE, 8 rats. How it is done:
After Wistar male rats (340-360 g) were fasted for 16 hours with water given ad libitum, the animal was exposed at laparotomy under ether anesthesia and submitted to the pylorus ligature assay to close the abdomen. After hNPW23 was dissolved in saline (2 mg/ml), the solution was intraperitoneally injected (2 mg/kg). The control group was given saline. Test was performed with 8 rats in each group. Three hours after the pylorus ligature, the rat's abdomen was opened under anesthesia with Nembutal (40 mg/kg, Dainippon Pharmaceutical). After ligation of the cardia, the stomach was removed. Gastric contents were collected and centrifuged (2500 rpm×10 min.). Using the supernatant, gastric fluid volume (ml), pH intragastric pH, gastric acidity (mEq/l) and total acid output (μEq/kg/h) were measured.
To 1 ml of gastric juice, 30 μl of BTB (Wako Pure Chemical) solution was added and […] NaOH solution was dropwise added to the mixture. The consumed amount of NaOH required to reach the equivalent point (pH 7.0) was measured to calculate the gastric acidity and total acid output.
The pH of gastric juice was measured using Twin pH meter B-212 (Horiba, Ltd.).
The respective measurements values were calculated according to the equation below and T-assay was conducted.
Gastric acidity (mEq/l)=0.2N NaOH×consumed amount (μl)/gastric juice (1000 μl)
Total acid output (μEq/kg/h)=gastric acidity x gastric fluid volume/weight/time

For the next test, the system named is Wistar male rats. Kind of test: Gastric acid secretion in anesthetized rat by intravenous injection of hNPW23 (stomach perfusion, NaOH titration). It is filed as in vivo. The settings on record: 80 μM in saline, 1 ml/h for 30 minutes through the femoral vein; mean±SE, 8 rats; P 0.01 or less vs control. The method, then:
After Wistar male rats (Nippon Charles River, weighing 320-360 g) were fasted for 16 hours with water given ad libitum, the animal was injected intraperitoneally with ethyl carbamate (Wako Pure Chemical) (1.0 g/ml/kg) and firmly secured to the operating table under anesthesia to perform laparotomy. Stomach catheter (Medtop X2-50, 3.5 mm in outer diameter and […] in inner diameter) was inserted into the stomach (2 cm) through an incision in the duodenum. After ligature at the pyloric canal, the right femoral vein was isolated to perform venous cannulation. The stomach was irrigated with distilled water (Otsuka Pharmaceutical Co., Ltd.) warmed at 37° C. and allowed to stand for about an hour. hNPW23 was dissolved in saline (Otsuka Pharmaceutical Co., Ltd.) to become 80 μM. The control group was given saline. […] Gastric acid output was determined as follows. […] After 30 μl of Bromthymol Blue indicator solution (BTB, Wako Pure Chemical) was added to each gastric juice collected, the mixture was titrated with 0.1N NaOH solution and the consumed amount of NaOH required to reach the equivalent point (the amount consumed) was determined to calculate the gastric acid output. The gastric acid output before administration of hNPW23 was measured and T-assay was conducted on a percentage (%) of changes in gastric acid outputs before and after administration. […]

In test [2] the test system is pylorus ligated rats. Kind of test: Amount of gastrin secretion (blood gastrin level, RIA) in pylorus ligated rats. It is filed as in vivo, rat. The settings on record: 2 mg/kg (2000 μg/kg group) intraperitoneally; blood 3 hours after pylorus ligature; vs saline group, 8 rats. How it is done: After Wistar male rats (340-360 g) were fasted for 16 hours with water given ad libitum as in EXAMPLE 2 above, the animal was exposed at laparotomy under ether anesthesia and submitted to the pylorus ligature assay to close the abdomen. After hNPW23 was dissolved in saline (2 mg/ml), the solution was intraperitoneally injected (2 mg/kg). The control group was given saline. Test was performed with 8 rats in each group. Three hours after the pylorus ligature, the rat's abdomen was opened under anesthesia with Nembutal (40 mg/kg) and blood was collected through the abdominal aorta. The blood was placed in a blood tube of 7 ml (Terumo, containing EDTA), centrifuged (3000 rpm×10 min.) and stored at −40° C in lyophilized state until assay. Gastrin level in blood was assayed with Gastrin RIA KIT II (ABBOTT JAPAN). The F-assay was conducted on mean measurement values.

With “hNPW23: human GPR8 ligand peptide (hNPW23), amino acid sequence SEQ ID NO: 1; Neuropeptide W (WYKHVASPRYHTVGRAAGLLMGL; listed as Homo sapiens)”, in the test on pylorus ligated rats [1], the Gastric acidity was determined as 96.0 ± 4.2 mEq/l, the Gastric fluid volume was found to be 7.9 ± 1.2 mL, the “Intragastric pH” value was determined as 0.83 ± 0.03 and the Total acid output turned out to be 747.4 ± 121.5 μEq/kg/h. The “changes in gastric acid outputs (gastric acid output after administration / before administration x 100)” value in the test with Wistar male rats came to 145.6±8.5%. Moreover, the “gastrin level in blood” value in the test with pylorus ligated rats [2] is reported as “increased significantly”.
